Laboratory results published in patent US20220142995A1, “DUAL ATM AND DNA-PK INHIBITORS FOR USE IN ANTI-TUMOR THERAPY” (XRAD Therapeutics, Inc., priority 2019, published 2022).
Several values for one entry are separate records, joined by “and”; a condition that tells them apart may be missing. Equal values may be shown once. Where a name gives a salt, the structure may show the parent alone.

How the values were obtained:
PI3Kα = target: T1, PI3Kα (Homo sapiens, UniProt P42336); test: PI3Kα biochemical assay (ADP-Glo); conditions: first value of PI3K-α/δ cell; ATP 10 μM
T1 construct: purchased ThermoFisher PV4788
Protocol: (§1) PI3Kα and PI3Kδ Biochemical Assay:
(§2) PI3K[…] and PI3K[…] Kinase reactions were performed in a 5 μL volume in low-volume 384-well plates. Typically, PerkinElmer model 6008280 plates were used. The 1× kinase reaction buffer consisted of 50 mM HEPES pH 7.5, 3 mM MgCl2, 0.03% CHAPS, 1 mM EGTA, 100 mM NaCl, and 2 mM DTT. PI3K[…] (ThermoFisher, #PV4788; the final PI3K[…] concentration: 120 ng/mL) or PI3K[…] enzyme solution (ThermoFisher, #PV6451; the final PI3K[…] concentration: 250 ng/mL) was added to the plate, compounds were serially diluted to the final maximal concentration of 100 nM (3 fold series dilution, a total of 10 doses), and the PIP2:3PS (the final concentration: 10 µg/mL) and ATP solution (the final ATP concentration: 10 μM) was added to the 384-well plate. The plate was incubated at 25° C. for 1 hour. ADP-Glo reagent buffer (5 μL) was added to each well. The plate was sealed and incubated for 40 min at 25° C. ADP-Glo detection buffer (10 μL) was added to each well, and the plate was incubated for 40 min at 25° C. and read on a plate reader configured for Luminescence.

PI3Kδ = target: T2, PI3Kδ (Homo sapiens, UniProt O00329); test: PI3Kδ biochemical assay (ADP-Glo); conditions: second value of PI3K-α/δ cell; ATP 10 μM
T2 construct: purchased ThermoFisher PV6451
Protocol: as §1, §2

mTOR = target: T3, mTOR (Homo sapiens, UniProt P42345); test: mTOR biochemical assay (LanthaScreen TR-FRET); conditions: ATP 3 μM, maximal concentration 100 nM
T3 construct: purchased ThermoFisher PR8683B
T3 sequence (P42345 1360-2549 limits assumed): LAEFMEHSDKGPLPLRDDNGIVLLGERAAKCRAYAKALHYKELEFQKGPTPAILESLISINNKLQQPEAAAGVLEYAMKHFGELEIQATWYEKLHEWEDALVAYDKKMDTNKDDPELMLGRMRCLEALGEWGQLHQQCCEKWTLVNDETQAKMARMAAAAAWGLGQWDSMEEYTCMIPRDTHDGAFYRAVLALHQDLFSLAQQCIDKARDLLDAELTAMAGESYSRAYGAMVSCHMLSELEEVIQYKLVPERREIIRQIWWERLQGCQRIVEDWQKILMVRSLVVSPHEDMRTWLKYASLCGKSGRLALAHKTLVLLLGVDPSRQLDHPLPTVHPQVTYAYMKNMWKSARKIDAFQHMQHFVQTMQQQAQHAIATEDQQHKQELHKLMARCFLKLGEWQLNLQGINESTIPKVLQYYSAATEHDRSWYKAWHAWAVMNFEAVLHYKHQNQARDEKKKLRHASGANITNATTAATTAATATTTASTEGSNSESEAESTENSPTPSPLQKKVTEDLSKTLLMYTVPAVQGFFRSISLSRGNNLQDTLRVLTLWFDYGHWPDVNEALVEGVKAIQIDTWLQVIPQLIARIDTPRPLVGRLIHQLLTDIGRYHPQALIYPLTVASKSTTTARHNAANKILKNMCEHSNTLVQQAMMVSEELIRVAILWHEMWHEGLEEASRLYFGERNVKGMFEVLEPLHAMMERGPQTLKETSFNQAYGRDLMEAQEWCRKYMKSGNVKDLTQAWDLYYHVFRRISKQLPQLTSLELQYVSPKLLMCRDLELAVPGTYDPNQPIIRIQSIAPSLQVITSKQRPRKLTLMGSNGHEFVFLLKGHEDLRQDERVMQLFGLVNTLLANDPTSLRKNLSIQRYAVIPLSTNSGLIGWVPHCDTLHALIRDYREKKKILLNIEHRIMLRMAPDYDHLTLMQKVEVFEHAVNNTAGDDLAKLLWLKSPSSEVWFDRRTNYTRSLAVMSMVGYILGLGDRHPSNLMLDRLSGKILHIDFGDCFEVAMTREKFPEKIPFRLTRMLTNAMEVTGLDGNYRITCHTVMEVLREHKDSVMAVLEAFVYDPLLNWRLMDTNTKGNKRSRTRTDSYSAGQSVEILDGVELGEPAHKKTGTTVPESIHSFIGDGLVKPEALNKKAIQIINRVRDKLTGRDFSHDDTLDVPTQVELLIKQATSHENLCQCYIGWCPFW
Protocol: mTOR Kinase reactions were performed in a 10 μL volume in low-volume 384-well plates. Typically, PerkinElmer model 6008260 plates were used. The composition of the 1× kinase reaction buffer was: 50 mM HEPES pH 7.5, 0.01% Tween 20, 1 mM EGTA, 10 mM MnCl2, and 2 mM DTT. The solution of mTOR enzyme (ThermoFisher, #PR8683B; the final mTOR concentration: 0.5 μg/mL) was added, and the compounds were serially diluted to the final maximal concentration of 100 nM (3 fold series dilution, a total of 10 doses). GFP-4E-BP1 (the final concentration: 0.4 μM) and the ATP solution (the final ATP concentration: 3 μM) were added to the 384-well plate. The plate was incubated at 25° C. for 1 hour, and 10 μL of the EDTA solution (20 mM) and Tb-labeled anti-p4E-BP1 antibody (4 nM) in TR-FRET dilution buffer were added to each well. The plate was sealed, incubated 30 min at 25° C., and read on a plate reader configured for LanthaScreen™ TRFRET.

ATM = target: T4, ATM (Homo sapiens, UniProt Q13315); test: ATM in Cell Western assay (pKAP1, etoposide-treated MCF-7 cells); assay type: cell-based; conditions: etoposide 100 μM, 1 h, pKAP1 readout
T4 construct: endogenous in cells; host or cells: MCF-7
T4 sequence (Q13315 whole entry): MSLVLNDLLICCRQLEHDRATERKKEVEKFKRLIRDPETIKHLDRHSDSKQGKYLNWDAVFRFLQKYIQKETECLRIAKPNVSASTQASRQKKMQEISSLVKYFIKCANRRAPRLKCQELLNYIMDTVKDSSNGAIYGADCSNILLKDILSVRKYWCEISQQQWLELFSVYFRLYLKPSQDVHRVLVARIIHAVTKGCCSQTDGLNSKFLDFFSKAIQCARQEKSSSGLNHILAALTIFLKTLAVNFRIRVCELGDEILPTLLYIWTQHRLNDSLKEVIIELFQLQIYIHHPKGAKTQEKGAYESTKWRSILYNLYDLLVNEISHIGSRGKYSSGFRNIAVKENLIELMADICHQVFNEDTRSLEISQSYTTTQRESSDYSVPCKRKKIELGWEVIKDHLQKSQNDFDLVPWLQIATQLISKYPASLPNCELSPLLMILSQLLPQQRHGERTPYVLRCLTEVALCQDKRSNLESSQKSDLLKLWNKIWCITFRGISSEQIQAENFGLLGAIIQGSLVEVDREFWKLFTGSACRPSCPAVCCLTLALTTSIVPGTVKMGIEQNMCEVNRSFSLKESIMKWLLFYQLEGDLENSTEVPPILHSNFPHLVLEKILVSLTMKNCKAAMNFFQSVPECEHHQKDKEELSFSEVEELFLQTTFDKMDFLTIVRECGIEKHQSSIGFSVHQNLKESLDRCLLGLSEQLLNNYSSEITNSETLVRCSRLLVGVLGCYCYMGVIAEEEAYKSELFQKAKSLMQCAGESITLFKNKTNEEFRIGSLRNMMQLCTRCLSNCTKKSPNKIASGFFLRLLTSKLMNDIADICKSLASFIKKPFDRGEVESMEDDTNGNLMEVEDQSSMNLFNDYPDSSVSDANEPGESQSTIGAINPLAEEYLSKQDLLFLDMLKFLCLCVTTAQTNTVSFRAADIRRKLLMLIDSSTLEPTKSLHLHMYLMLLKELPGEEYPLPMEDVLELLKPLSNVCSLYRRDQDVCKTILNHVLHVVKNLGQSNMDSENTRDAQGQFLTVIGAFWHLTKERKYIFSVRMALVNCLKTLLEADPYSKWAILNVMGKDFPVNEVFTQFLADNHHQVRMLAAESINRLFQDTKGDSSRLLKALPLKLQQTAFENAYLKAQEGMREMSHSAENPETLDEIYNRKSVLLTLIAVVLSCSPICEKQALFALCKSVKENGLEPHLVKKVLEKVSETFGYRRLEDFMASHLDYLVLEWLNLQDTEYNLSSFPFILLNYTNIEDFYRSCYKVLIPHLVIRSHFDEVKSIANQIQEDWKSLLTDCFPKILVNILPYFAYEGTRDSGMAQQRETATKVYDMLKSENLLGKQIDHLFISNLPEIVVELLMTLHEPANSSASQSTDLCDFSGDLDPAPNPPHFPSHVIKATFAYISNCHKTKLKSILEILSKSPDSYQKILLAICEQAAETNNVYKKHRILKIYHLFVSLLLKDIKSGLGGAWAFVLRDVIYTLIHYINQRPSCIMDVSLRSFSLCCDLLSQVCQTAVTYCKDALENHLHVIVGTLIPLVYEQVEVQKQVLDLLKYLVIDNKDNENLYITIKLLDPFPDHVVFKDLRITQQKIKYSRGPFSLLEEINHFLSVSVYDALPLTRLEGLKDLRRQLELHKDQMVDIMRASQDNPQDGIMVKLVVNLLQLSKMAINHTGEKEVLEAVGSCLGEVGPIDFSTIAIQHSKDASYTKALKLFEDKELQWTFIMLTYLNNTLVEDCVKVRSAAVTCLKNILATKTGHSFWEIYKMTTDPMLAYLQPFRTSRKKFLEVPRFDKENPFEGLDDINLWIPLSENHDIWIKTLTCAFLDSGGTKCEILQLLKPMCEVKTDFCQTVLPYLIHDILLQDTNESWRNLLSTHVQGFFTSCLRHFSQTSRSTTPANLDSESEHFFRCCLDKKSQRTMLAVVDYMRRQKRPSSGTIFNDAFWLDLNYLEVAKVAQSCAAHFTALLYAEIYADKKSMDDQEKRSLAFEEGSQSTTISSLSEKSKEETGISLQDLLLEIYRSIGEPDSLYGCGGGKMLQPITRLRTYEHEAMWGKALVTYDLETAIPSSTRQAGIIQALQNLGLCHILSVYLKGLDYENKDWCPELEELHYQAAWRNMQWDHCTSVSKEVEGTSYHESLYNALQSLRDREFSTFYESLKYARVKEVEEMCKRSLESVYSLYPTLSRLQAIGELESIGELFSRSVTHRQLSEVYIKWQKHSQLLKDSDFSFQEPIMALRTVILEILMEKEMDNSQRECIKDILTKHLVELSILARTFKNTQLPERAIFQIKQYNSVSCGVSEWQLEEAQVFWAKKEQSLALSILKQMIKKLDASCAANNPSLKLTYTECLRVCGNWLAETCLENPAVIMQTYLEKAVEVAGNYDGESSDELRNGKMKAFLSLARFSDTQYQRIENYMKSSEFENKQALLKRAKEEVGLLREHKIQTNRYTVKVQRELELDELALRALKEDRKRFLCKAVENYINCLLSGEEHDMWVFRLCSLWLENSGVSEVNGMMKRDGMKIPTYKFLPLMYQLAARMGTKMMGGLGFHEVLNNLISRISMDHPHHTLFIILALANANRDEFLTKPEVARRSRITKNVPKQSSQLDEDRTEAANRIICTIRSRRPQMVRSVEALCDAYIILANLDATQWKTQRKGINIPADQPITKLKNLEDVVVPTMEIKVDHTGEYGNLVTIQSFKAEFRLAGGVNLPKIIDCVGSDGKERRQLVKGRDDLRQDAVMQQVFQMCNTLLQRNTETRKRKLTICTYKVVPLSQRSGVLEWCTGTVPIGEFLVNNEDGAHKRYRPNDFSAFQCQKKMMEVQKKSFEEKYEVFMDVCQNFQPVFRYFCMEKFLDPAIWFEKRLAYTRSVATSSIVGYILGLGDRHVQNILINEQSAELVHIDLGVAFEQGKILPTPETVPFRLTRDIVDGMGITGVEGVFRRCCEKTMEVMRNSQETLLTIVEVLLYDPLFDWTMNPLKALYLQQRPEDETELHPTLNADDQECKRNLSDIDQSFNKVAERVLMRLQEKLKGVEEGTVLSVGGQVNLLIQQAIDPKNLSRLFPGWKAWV
Protocol: ATM in Cell Western Assay:
In the morning, MCF-7 breast cancer cells were placed in a 384 well plate at the density of 10,000 cells/well (Corning, #356663), 25 μL cells per well. The following day, compounds were added to the plate using a pin tool (Echo 550) to a final concentration of 1 μM through a 3-fold serial dilution (a total of 10 doses). Then, etoposide (Sigma, #E1383) was added to a final concentration of 100 μM. The plate was incubated at 37° C. for 1 h, and the cells were fixed by the addition of 25 μL of fixing solution (8% paraformaldehyde) for 20 minutes at ambient temperature. Cells were permeabilized by 5 washes with 1×PBS (phosphate buffered saline) containing 0.1% Triton X-100; each wash was 5 minutes long. Cells were blocked by adding 50 μL of Odyssey Blocking Buffer (LI-COR, #927-40000) in 384 well plates for 1.5 hours with shaking at ambient temperature. Blocking buffer was then removed, and 20 μL of anti-pKAP1 antibody (Bethyl Laboratories, #A300-767A) (1/2000) solution were added to each well of 384-well plate. The plate was incubated overnight at 4° C. and then washed 5 times with 1×PBST (1×PBS containing 0.1% Tween-20). A secondary antibody (IRDye 800CW Goat anti-Rabbit IgG, LI-COR, #926-32211) (1/5,000) solution containing DNA stain DRAQ5 (CST, #4084L) (1/5,000) (20 μL) was added to each well in the plate, and the plate was incubated 1 hour with gentle shaking in the dark. Cells were washed 5 times with 1×PBST (1×PBS containing 0.1% Tween-20) at ambient temperature with gentle shaking in the dark. After the last wash, the wash solution was removed, the plate was inverted upside down onto a thin paper towel and centrifuged at 1000 rpm for 1 min to absorb all wash buffer. The bottom of the plate was cleaned with a moist, lint-free paper. The plate was immediately scanned using ODYSSEY CLx (LI-COR).

SMILES | IC50 (PI3Kα) [nM] | IC50 (PI3Kδ) [nM] | IC50 (mTOR) [nM] | IC50 (ATM)
CC[C@H]1C[C@@]2(C1)C(=O)N(C)c1cnc3cc(F)c(-c4cnc(OCCNC(C)C)c(NS(C)(=O)=O)c4)cc3c12 [Compound 566, trans-N-(5-(3-Ethyl-7′-fluoro-3′-methyl-2′-oxo-2′,3′-dihydrospiro[cyclobutane-1,1′-pyrrolo[2,3-c]quinolin]-8′-yl)-2-(2-(isopropylamino)ethoxy)pyridin-3-yl)methanesulfonamide] | > 100 | 14 | > 100 | 6.72 nM
CC(C)NCCOc1ncc(-c2cc3c(cc2F)ncc2c3[C@]3(C[C@@H](OCc4ccccc4)C3)C(=O)N2C)cc1NS(C)(=O)=O [Compound 567, trans-N-(5-(3-(Benzyloxy)-7′-fluoro-3′-methyl-2′-oxo-2′,3′-dihydrospiro[cyclobutane-1,1′-pyrrolo[2,3-c]quinolin]-8′-yl)-2-(2-(isopropylamino)ethoxy)pyridin-3-yl)methanesulfonamide] | > 100 | > 100 | > 100 | 11 nM
CC(C)NCCOc1ncc(-c2cc3c4c(cnc3cc2F)N(C)C(=O)C42CCC2)cc1NS(=O)(=O)C(C)C [Compound 568, N-(5-(7′-Fluoro-3′-methyl-2′-oxo-2′,3′-dihydrospiro[cyclobutane-1,1′-pyrrolo[2,3-c]quinolin]-8′-yl)-2-(2-(isopropylamino)ethoxy)pyridin-3-yl)propane-2-sulfonamide] | 18 | 54 | > 100 | 2.88 nM
CC(C)NCCOc1ncc(-c2cc3c4c(cnc3cc2F)N(C)C(=O)C42CCC2)cc1NS(C)(=O)=O [Compound 569, N-(5-(7′-Fluoro-3′-methyl-2′-oxo-2′,3′-dihydrospiro[cyclobutane-1,1′-pyrrolo[2,3-c]quinolin]-8′-yl)-2-(2-(isopropylamino)ethoxy)pyridin-3-yl)methanesulfonamide] | 16 | 73 | – | 2.43 nM
CCS(=O)(=O)Nc1cc(-c2cc3c4c(cnc3cc2F)N(C)C(=O)C42CCC2)cnc1OCCNC(C)C [Compound 570, N-(5-(7′-Fluoro-3′-methyl-2′-oxo-2′,3′-dihydrospiro[cyclobutane-1,1′-pyrrolo[2,3-c]quinolin]-8′-yl)-2-(2-(isopropylamino)ethoxy)pyridin-3-yl)ethanesulfonamide] | 21 | 55 | > 100 | 3.6 nM
CC(C)NCCOc1ncc(-c2cc3c4c(cnc3cc2F)N(C)C(=O)C42CN(C(C)C)C2)cc1NS(C)(=O)=O [Compound 571, N-(5-(7′-Fluoro-1-isopropyl-3′-methyl-2′-oxo-2′,3′-dihydrospiro[azetidine-3,1′-pyrrolo[2,3-c]quinolin]-8′-yl)-2-(2-(isopropylamino)ethoxy)pyridin-3-yl)methanesulfonamide] | 62 | – | > 100 | 5.76 nM and 5.51 nM
CC(C)NCCOc1ncc(-c2cc3c(cc2F)ncc2c3[C@]3(C[C@H](OCc4ccccc4)C3)C(=O)N2C)cc1NS(C)(=O)=O [Compound 572, cis-N-(5-(3-(Benzyloxy)-7′-fluoro-3′-methyl-2′-oxo-2′,3′-dihydrospiro[cyclobutane-1,1′-pyrrolo[2,3-c]quinolin]-8′-yl)-2-(2-(isopropylamino)ethoxy)pyridin-3-yl)methanesulfonamide] | 23 | 15 | > 100 | 1.05 nM
CC[C@H]1C[C@]2(C1)C(=O)N(C)c1cnc3cc(F)c(-c4cnc(OCCNC(C)C)c(NS(C)(=O)=O)c4)cc3c12 [Compound 573, cis-N-(5-(3-Ethyl-7′-fluoro-3′-methyl-2′-oxo-2′,3′-dihydrospiro[cyclobutane-1,1′-pyrrolo[2,3-c]quinolin]-8′-yl)-2-(2-(isopropylamino)ethoxy)pyridin-3-yl)methanesulfonamide] | 18 | 12 | > 100 | 0.92 nM
CN1C(=O)C2(CCC2)c2c1cnc1ccc(-c3cnc(N4CC(N(C)C)C4)c(NS(C)(=O)=O)c3)cc21 [Compound 574, N-(2-(3-(Dimethylamino)azetidin-1-yl)-5-(3′-methyl-2′-oxo-2′,3′-dihydrospiro[cyclobutane-1,1′-pyrrolo[2,3-c]quinolin]-8′-yl)pyridin-3-yl)methanesulfonamide hydrochloride] | 0.12 | 3 | 19.9 | 1.52 nM
